Source: patent US20210070748A1, “INHIBITORS OF BRUTONS TYROSINE KINASE” (Pharmacyclics LLC, priority 2015, published 2021)

Tests used:
Assay type in all cases: biochemical
[1] = molecular target: T1, BTK-WT (Homo sapiens, UniProt Q06187); experiment: Btk in vitro inhibitory activity (one of Method A TR-FRET, Method B electrophoretic mobility shift, Method C radiometric filter binding); settings: E compounds, Table 17; read-out: IC50 BTK-WT
T1 construct: purified from insect cells as a full-length construct containing an N-terminal 6X-His tag; His6 (N); made in house; host or cells: insect cells (baculovirus Sf21 in Method B)
T1 sequence (Q06187 whole entry): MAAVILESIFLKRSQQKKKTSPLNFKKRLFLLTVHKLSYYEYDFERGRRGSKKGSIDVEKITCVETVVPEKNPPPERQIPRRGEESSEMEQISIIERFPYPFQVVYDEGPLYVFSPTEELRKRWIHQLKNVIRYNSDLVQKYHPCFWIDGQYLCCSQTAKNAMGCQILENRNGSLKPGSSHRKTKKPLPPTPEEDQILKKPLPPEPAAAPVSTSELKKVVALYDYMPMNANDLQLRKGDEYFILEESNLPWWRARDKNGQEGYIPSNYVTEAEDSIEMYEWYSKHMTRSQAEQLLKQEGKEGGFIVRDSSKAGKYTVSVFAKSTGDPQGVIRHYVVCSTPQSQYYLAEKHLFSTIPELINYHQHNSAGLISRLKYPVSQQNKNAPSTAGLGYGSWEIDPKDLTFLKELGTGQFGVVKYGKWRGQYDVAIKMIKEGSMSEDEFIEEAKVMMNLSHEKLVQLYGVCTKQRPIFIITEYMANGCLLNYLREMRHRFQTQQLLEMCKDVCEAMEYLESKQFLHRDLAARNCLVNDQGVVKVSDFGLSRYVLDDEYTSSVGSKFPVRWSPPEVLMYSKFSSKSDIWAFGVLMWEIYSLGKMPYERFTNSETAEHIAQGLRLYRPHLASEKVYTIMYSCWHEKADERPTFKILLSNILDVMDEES

[2] = molecular target: T2, ITK (Homo sapiens, UniProt Q08881); experiment: Inhibition of a panel of kinases, in vitro HotSpot kinase assay: ITK; settings: E compounds, Table 17
T2 sequence (Q08881 1-620): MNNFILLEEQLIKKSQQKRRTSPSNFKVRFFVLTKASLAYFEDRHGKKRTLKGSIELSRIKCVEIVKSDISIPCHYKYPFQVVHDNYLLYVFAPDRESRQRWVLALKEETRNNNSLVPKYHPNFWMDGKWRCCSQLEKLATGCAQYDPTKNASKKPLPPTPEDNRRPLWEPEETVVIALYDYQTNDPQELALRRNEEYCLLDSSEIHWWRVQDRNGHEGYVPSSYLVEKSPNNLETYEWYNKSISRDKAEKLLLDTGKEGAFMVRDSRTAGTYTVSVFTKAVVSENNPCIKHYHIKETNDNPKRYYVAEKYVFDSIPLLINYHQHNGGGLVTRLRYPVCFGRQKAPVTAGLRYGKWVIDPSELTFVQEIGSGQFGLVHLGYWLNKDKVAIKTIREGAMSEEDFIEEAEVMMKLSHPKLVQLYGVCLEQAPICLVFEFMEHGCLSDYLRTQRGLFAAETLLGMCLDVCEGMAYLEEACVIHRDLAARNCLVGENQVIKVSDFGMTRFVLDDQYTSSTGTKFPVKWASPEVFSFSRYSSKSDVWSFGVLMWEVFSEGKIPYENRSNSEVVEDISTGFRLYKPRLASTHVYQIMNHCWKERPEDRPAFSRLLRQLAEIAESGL
Procedure: (§1) The degree of inhibition of a panel of kinases is determined using the in vitro HotSpot kinase assay (purified enzymes, ^33P-ATP, an appropriate substrate and 1 μM ATP).

[3] = molecular target: EGFR (Homo sapiens, UniProt P00533); experiment: Inhibition of a panel of kinases, in vitro HotSpot kinase assay: EGFR; settings: E compounds, Table 17
Chain of EGFR (P00533 25-1210): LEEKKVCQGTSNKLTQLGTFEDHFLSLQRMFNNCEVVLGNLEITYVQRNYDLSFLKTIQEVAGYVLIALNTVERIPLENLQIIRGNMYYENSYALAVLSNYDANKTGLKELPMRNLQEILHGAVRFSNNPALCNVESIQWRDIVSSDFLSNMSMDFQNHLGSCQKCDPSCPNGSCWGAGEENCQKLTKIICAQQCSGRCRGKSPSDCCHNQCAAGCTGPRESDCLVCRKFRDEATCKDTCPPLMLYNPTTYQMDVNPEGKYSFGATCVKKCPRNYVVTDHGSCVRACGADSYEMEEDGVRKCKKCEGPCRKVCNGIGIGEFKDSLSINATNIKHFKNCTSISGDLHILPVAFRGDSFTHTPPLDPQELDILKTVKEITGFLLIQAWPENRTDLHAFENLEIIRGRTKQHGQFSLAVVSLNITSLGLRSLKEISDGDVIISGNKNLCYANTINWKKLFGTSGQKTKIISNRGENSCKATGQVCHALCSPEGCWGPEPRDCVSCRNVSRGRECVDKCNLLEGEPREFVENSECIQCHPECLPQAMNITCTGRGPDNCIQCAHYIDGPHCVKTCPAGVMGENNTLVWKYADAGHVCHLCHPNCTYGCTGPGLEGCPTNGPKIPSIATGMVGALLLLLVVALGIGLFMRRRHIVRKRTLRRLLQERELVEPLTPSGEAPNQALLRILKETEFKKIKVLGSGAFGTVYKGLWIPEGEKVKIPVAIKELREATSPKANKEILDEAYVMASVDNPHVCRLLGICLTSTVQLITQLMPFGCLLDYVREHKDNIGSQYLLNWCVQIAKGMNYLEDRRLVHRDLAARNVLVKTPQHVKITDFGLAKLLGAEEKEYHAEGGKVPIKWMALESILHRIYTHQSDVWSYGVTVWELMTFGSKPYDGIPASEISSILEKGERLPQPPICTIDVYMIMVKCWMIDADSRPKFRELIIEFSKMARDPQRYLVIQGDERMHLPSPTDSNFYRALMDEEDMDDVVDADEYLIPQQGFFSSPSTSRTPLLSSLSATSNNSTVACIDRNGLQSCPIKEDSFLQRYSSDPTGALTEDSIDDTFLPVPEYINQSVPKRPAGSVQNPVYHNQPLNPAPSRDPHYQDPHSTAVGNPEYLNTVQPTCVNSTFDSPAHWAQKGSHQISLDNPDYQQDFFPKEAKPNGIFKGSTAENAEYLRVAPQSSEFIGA
Procedure: as §1

[4] = molecular target: T3, TEC (Homo sapiens, UniProt P42680); experiment: Inhibition of a panel of kinases, in vitro HotSpot kinase assay: TEC; settings: E compounds, Table 17
T3 sequence (P42680 1-631): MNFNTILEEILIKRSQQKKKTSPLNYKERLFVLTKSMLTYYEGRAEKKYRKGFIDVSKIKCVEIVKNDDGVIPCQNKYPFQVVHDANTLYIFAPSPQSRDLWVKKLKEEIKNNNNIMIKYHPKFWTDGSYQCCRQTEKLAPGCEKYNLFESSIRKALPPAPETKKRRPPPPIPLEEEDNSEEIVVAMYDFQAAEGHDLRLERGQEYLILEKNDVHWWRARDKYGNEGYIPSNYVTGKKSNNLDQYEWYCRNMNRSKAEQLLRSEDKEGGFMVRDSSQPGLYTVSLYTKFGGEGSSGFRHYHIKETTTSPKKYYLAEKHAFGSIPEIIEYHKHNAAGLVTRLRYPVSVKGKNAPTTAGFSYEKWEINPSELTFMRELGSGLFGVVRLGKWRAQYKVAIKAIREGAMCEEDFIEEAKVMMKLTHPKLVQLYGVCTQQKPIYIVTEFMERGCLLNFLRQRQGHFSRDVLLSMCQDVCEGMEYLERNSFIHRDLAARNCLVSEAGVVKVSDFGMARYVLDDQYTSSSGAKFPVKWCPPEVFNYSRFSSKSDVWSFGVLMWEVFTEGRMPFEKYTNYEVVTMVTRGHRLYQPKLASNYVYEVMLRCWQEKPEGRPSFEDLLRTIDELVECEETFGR
Procedure: as §1

| IC50 [1] [nM] | IC50 [2] [nM] | IC50 [3] [nM] | IC50 [4] [nM] | SMILES |
| --- | --- | --- | --- | --- |
| ≤ 10 | ≤ 10 | ≤ 10 | ≤ 10 | C=CC(=O)N1CCC[C@@H](Nc2nnc(C(N)=O)c(Nc3ccc(S(C)(=O)=O)cc3)n2)C1 [Example E-47, (R)-3-(1-acryloylpiperidin-3-ylamino)-5-(4-(methylsulfonyl)phenyl-amino)-1,2,4-triazine-6-carboxamide] |
| ≤ 10 | 10 to 100 | – | ≤ 10 | C=CC(=O)N1CCC[C@@H](Nc2nnc(C(N)=O)c(Nc3cccc(C(=O)NC)c3)n2)C1 [Example E-82, (R)-3-(1-acryloylpiperidin-3-ylamino)-5-(3-(methylcarbamoyl)phenylamino)-1,2,4-triazine-6-carboxamide] |
| ≤ 10 | 10 to 100 | – | ≤ 10 | C=CC(=O)N1CCC[C@@H](Nc2nnc(C(N)=O)c(Nc3cccc(C(=O)N4CCOCC4)c3)n2)C1 [Example E-85, (R)-3-(1-acryloylpiperidin-3-ylamino)-5-(3-(morpholine-4-carbonyl)phenylamino)-1,2,4-triazine-6-carboxamide] |
| ≤ 10 | 10 to 100 | – | ≤ 10 | C=CC(=O)N1CCC[C@@H](Nc2nnc(C(N)=O)c(Nc3cccc(C(=O)NCc4ccccc4)c3)n2)C1 [Example E-86, (R)-3-(1-acryloylpiperidin-3-ylamino)-5-(3-(benzyl-carbamoyl)phenyl-amino)-1,2,4-triazine-6-carboxamide] |
| ≤ 10 | 100 to 1000 | – | 10 to 100 | C=CC(=O)NC[C@H]1CCCCN1c1nnc(C(N)=O)c(Nc2ccc(C(C)C)cc2)n1 [Example E-88, (R)-3-(2-(acrylamido-methyl)piperidin-1-yl)-5-(4-isopropyl-phenylamino)-1,2,4-triazine-6-carboxamide] |
| 100 to 1000 | 1000 to 10000 | – | 100 to 1000 | C=CC(=O)NC[C@@H]1CCCCN1c1nnc(C(N)=O)c(Nc2ccc(C(C)C)cc2)n1 [Example E-89, (S)-3-(2-(acrylamido-methyl)piperidin-1-yl)-5-(4-isopropyl-phenylamino)-1,2,4-triazine-6-carboxamide] |
| ≤ 10 | 10 to 100 | – | ≤ 10 | C=CC(=O)NC[C@H]1CCCN1c1nnc(C(N)=O)c(Nc2ccc(C(C)C)cc2)n1 [Example E-90, (R)-3-(2-(acrylamido-methyl)pyrrolidin-1-yl)-5-(4-isopropylphenyl-amino)-1,2,4-triazine-6-carboxamide] |
| 10 to 100 | 1000 to 10000 | – | 100 to 1000 | C=CC(=O)NC[C@@H]1CCCN1c1nnc(C(N)=O)c(Nc2ccc(C(C)C)cc2)n1 [Example E-91, (S)-3-(2-(acrylamido-methyl)pyrrolidin-1-yl)-5-(4-isopropylphenyl-amino)-1,2,4-triazine-6-carboxamide] |
| ≤ 10 | ≤ 10 | – | ≤ 10 | C=CC(=O)N1CC[C@@H](N(C)c2cnc(C(N)=O)c(Nc3ccc(N4CCN(C)CC4)cc3)n2)C1 [Example E-111, (R)-5-((1-acryloylpyrrolidin-3-yl)(methyl)amino)-3-(4-(4-methylpiperazin-1-yl)phenylamino)pyrazine-2-carboxamide] |
| ≤ 10 | 10 to 100 | – | ≤ 10 | C=CC(=O)N1CC[C@@H](N(C)c2cnc(C(N)=O)c(Nc3cccc(-c4nccn4C)c3)n2)C1 [Example E-112, (R)-5-((1-acryloylpyrrolidin-3-yl)(methyl)amino)-3-(3-(1-methyl-1H-imidazol-2-yl)phenylamino)pyrazine-2-carboxamide] |
| ≤ 10 | ≤ 10 | – | ≤ 10 | C=CC(=O)N1CC[C@@H](N(C)c2cnc(C(N)=O)c(Nc3cc(C)ns3)n2)C1 [Example E-114, (R)-5-((1-acryloylpyrrolidin-3-yl)(methyl)amino)-3-(3-methylisothiazol-5-ylamino)pyrazine-2-carboxamide] |
| ≤ 10 | ≤ 10 | – | ≤ 10 | C=CC(=O)N1CC[C@@H](N(C)c2cnc(C(N)=O)c(Nc3ccc(C(O)(C(F)(F)F)C(F)(F)F)cc3)n2)C1 [Example E-120, (R)-5-((1-acryloylpyrrolidin-3-yl)(methyl)amino)-3-(4-(1,1,1,3,3,3-hexafluoro-2-hydroxypropan-2-yl)phenylamino)pyrazine-2-carboxamide] |

Further lines, the compound ahead of its results:

| SMILES | IC50 [1] [nM] | IC50 [2] [nM] | IC50 [3] [nM] | IC50 [4] [nM] |
| --- | --- | --- | --- | --- |
| C=CC(=O)N1CCC[C@@H](Nc2nnc(C(N)=O)c(Nc3ccc(C4(C#N)CCCC4)cc3)n2)C1 [Example E-46, (R)-3-(1-acryloylpiperidin-3-ylamino)-5-(4-(1-cyanocyclopentyl)phenylamino)-1,2,4-triazine-6-carboxamide] | ≤ 10 | ≤ 10 | ≤ 10 | ≤ 10 |
| C=CC(=O)N1CCC[C@@H](Nc2nnc(C(N)=O)c(Nc3cccc(-c4ncccn4)c3)n2)C1 [Example E-55, (R)-3-(1-acryloylpiperidin-3-ylamino)-5-(3-(pyrimidin-2-yl)phenylamino)-1,2,4-triazine-6-carboxamide] | ≤ 10 | 10 to 100 | 10 to 100 | ≤ 10 |
| C=CC(=O)N1CCC[C@@H](Nc2nnc(C(N)=O)c(Nc3ccc(C4=NCCN4C)cc3)n2)C1 [Example E-80, (R)-3-(1-acryloylpiperidin-3-ylamino)-5-(4-(1-methyl-4,5-dihydro-1H-imidazol-2-yl)phenylamino)-1,2,4-triazine-6-carboxamide] | ≤ 10 | ≤ 10 | – | ≤ 10 |
| C=CC(=O)N1CCC[C@@H](Nc2nnc(C(N)=O)c(Nc3cccc(C(=O)OCC)c3)n2)C1 [Example E-81, (R)-ethyl 3-(3-(1-acryloylpiperidin-3-ylamino)-6-carbamoyl-1,2,4-triazin-5-ylamino)benzoate] | ≤ 10 | 100 to 1000 | – | ≤ 10 |
| C=CC(=O)N1CCC[C@@H](Nc2nnc(C(N)=O)c(Nc3cccc(C(=O)N(C)C)c3)n2)C1 [Example E-83, (R)-3-(1-acryloylpiperidin-3-ylamino)-5-(3-(dimethylcarbamoyl)phenylamino)-1,2,4-triazine-6-carboxamide] | ≤ 10 | 10 to 100 | – | ≤ 10 |
| C=CC(=O)N1CCC[C@@H](Nc2nnc(C(N)=O)c(Nc3cccc(C(=O)NC4CC4)c3)n2)C1 [Example E-84, (R)-3-(1-acryloylpiperidin-3-ylamino)-5-(3-(cyclopropyl-carbamoyl)phenyl-amino)-1,2,4-triazine-6-carboxamide] | ≤ 10 | 10 to 100 | – | ≤ 10 |
| C=CC(=O)N1CCC[C@@H](Nc2nnc(C(N)=O)c(Nc3cccc(C(=O)N4CCCCC4)c3)n2)C1 [Example E-87, (R)-3-(1-acryloylpiperidin-3-ylamino)-5-(3-(piperidine-1-carbonyl)phenylamino)-1,2,4-triazine-6-carboxamide] | ≤ 10 | 100 to 1000 | – | ≤ 10 |
| C=CC(=O)N1CC[C@@H](N(C)c2cnc(C(N)=O)c(Nc3cccc(-n4nccn4)c3)n2)C1 [Example E-113, (R)-3-(3-(2H-1,2,3-triazol-2-yl)phenylamino)-5-((1-acryloylpyrrolidin-3-yl)(methyl)amino) pyrazine-2-carboxamide] | ≤ 10 | 10 to 100 | – | ≤ 10 |
| CN(c1cnc(C(N)=O)c(Nc2ccc(C3CCN(C4CC4)CC3)cc2)n1)[C@@H]1CCN(C(=O)CCCl)C1 [Example E-122, (R)-5-((1-(3-chloropropanoyl)pyrrolidin-3-yl)(methyl)amino)-3-(4-(1-cyclopropylpiperidin-4-yl)phenylamino)pyrazine-2-carboxamide] | ≤ 10 | ≤ 10 | – | ≤ 10 |
